Test system: 889142-216-R-J1-PDC complex spheroid viability
Assay: Anticancer human tumor 889142-216-R-J1-PDC patient-derived bladder carcinoma cell line growth inhibition [POLQ]
Conditions: for IC50: curve of first compound; for viability, T/C: stronger effect = lower value
Experimental: Multicellular complex tumor spheroid response to Polymerase (POL) inhibitors (novobiocin, ART-558, RP6685) in combination with a variety of drugs and investigational agents in selected tumor cell lines
The POL inhibitors (novobiocin, ART-558, and RP6685) were evaluated both individually and in combination with standard of care and investigational anticancer small molecules within a complex spheroid model of solid tumors. . Complex spheroids include a stromal component modeled by human endothelial cells (HUVEC) and fibroblasts modeled by human mesenchymal stem cells (MSCs). The concentration ranges selected for each drug and investigational agent were based upon clinically achievable concentrations if the clinical Cmax of the agent was known.
Compounds. The drugs and investigational agents: novobiocin (NSC847541), ART-558 (NSC835418), RP-6685 (NSC848927), peposertib (NSC802822), ceralasertib (NSC780249), elimusertib (NSC800525), camonsertib (NSC841442), AZD-1390 (NSC803789), olaparib (NSC753686), talazoparib (NSC767125), rucaparib (NSC756644), sotorasib (NSC818433), MRTX-1133 (NSC836407), SN-38 (NSC673596), topotecan (NSC609699), epotoside (NSC141540), doxorubicin (NSC123127), gemcitabine (NSC613327), 5-fluorouracil (NSC19893), paclitaxel (NSC125973), vemurafenib (NSC761431), MSA-2 (NSC828583), SN-011 (NSC837082), adavosertib (NSC754352), prexasertib (NSC758257), carboplatin (NSC241240) and oxaliplatin (NSC266046), were obtained from the National Cancer Institute (NCI) Developmental Therapeutics Program Chemical Repository (21). The FDA-approved anticancer drug set is available from the Developmental Therapeutics Program at https://dtp.cancer.gov/organization/dscb/obtaining/. […] The stock solutions were prepared in dimethyl sulfoxide (DMSO, Sigma-Aldrich, St. Louis, MO, cat. D2650), except for the platinum compounds which were prepared in saline (Quality Biological, Gaithersburg, MD, cat. 114-055-101), at 800-fold the tested concentration and stored at -70 degrees C prior to their use. All drugs and investigational agents were tested over a range starting from a high concentration at or near the clinical Cmax and decreasing in half-log increments. If the clinical Cmax for an agent had not been determined, the highest concentration tested was 10 microM, except for SN-38, which was tested at a high concentration of 1 microM.
Cell Culture. All cells were maintained in an incubator at 37 degrees C and 5% CO2 with 95% humidity. The PDC lines were cultured according to standard operating procedures established by the NCI PDMR (https://pdmr.cancer.gov). Table 3 of the manuscript, lists the cell lines along with the number of the three cell types plated to form the mct-spheroids and media for tumor cell growth. After thawing, all PDC lines, except 997537-175-T-J1-PDC and 415267-285-R-J2-PDC, were cultured in Matrigel-coated flasks prepared with a working solution of 1X Ham's F-12 nutrient mix, without supplementation (Thermo Fisher Scientific, cat. 11765054), 100 U/mL penicillin-streptomycin (Thermo Fisher Scientific, cat. 15140122), and 2.5% Matrigel (Corning Inc., Corning, NY, cat. 354248) for the first three passages. The two PDC lines 997537-175-T-J1-PDC and 415267-285-R-J2-PDC were cultured on uncoated flasks. The 857933-349-R-J2-PDC line was cultured in 6C/Colon 1B media containing advanced DMEM/F-12 (Thermo Fisher Scientific, cat. 12634028), 10 mM HEPES (Thermo Fisher Scientific, cat. 15630080), 1X GlutaMAX supplement (Thermo Fisher Scientific, cat. 35050061), 0.1 mg/mL primocin (InvivoGen, San Diego, CA, cat. ant-pm-2), 10% defined fetal bovine serum, heat inactivated (HyClone Laboratories Inc., Logan, UT, cat. SH30070.03HI), 50% L-WRN conditioned media (ATCC, cat. CRL-3276), 1.25 mM N-Acetyl-L-cysteine (Sigma-Aldrich, cat. A9165), 10 mM nicotinamide (Sigma-Aldrich, cat. N0636), 1X B-27 supplement (Thermo Fisher Scientific, cat. 17504044), 1X N-2 supplement (Thermo Fisher Scientific, cat. […]

[1] = second compound 0.0316 µM, first compound 0.00316 µM
[2] = second compound 0.0316 µM, first compound 0.01 µM
[3] = second compound 0.0316 µM, first compound 0.0316 µM
[4] = second compound 0.0316 µM, first compound 0.1 µM
[5] = second compound 0.1 µM, first compound 0.00316 µM
[6] = second compound 0.1 µM, first compound 0.01 µM
[7] = second compound 0.1 µM, first compound 0.0316 µM
[8] = second compound 0.1 µM, first compound 0.1 µM
[9] = second compound 0.316 µM, first compound 0.00316 µM
[10] = second compound 0.316 µM, first compound 0.01 µM
[11] = second compound 0.316 µM, first compound 0.0316 µM
[12] = second compound 0.316 µM, first compound 0.1 µM
[13] = second compound 1 µM, first compound 0.00316 µM
[14] = second compound 1 µM, first compound 0.01 µM
[15] = second compound 1 µM, first compound 0.0316 µM
[16] = second compound 1 µM, first compound 0.1 µM
[17] = second compound 3.16 µM, first compound 0.00316 µM
[18] = second compound 3.16 µM, first compound 0.01 µM
[19] = second compound 3.16 µM, first compound 0.0316 µM
[20] = second compound 3.16 µM, first compound 0.1 µM
[21] = second compound 10 µM, first compound 0.00316 µM
[22] = second compound 10 µM, first compound 0.01 µM
[23] = second compound 10 µM, first compound 0.0316 µM
[24] = second compound 10 µM, first compound 0.1 µM
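Further: spheroids exposed to compounds for seven days.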
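Wherever viability, T/C is given: 100% = DMSO vehicle control viability.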

## C=CCn1c(=O)c2cnc(Nc3ccc(N4CCN(C)CC4)cc3)nc2n1-c1cccc(C(C)(C)O)n1 + Cc1cccc(N(C)C(=O)C2C(O)CCN2c2nc(C)cc(C(F)(F)F)c2C#N)c1
Second compound 0.0316 µM
  IC50: > 1000 nM
Second compound 0.1 µM
  IC50: > 1000 nM
Second compound 0.316 µM
  IC50: > 1000 nM
Second compound 1 µM
  IC50: > 1000 nM
Second compound 3.16 µM
  IC50: > 1000 nM
Second compound 10 µM
  IC50: > 1000 nM
[1]
  viability, T/C: 113%
[2]
  viability, T/C: 93.8%
[3]
  viability, T/C: 103%
[4]
  viability, T/C: 101%
Second compound 0.0316 µM, first compound 0.316 µM
  viability, T/C: 90%
Second compound 0.0316 µM, first compound 1 µM
  viability, T/C: 55.5%
[5]
  viability, T/C: 99.3%
[6]
  viability, T/C: 115%
[7]
  viability, T/C: 104%
[8]
  viability, T/C: 90.1%
Second compound 0.1 µM, first compound 0.316 µM
  viability, T/C: 106%
Second compound 0.1 µM, first compound 1 µM
  viability, T/C: 54.4%
[9]
  viability, T/C: 129%
[10]
  viability, T/C: 89.5%
[11]
  viability, T/C: 99.2%
[12]
  viability, T/C: 95.8%
Second compound 0.316 µM, first compound 0.316 µM
  viability, T/C: 75%
Second compound 0.316 µM, first compound 1 µM
  viability, T/C: 69.3%
[13]
  viability, T/C: 118%
[14]
  viability, T/C: 84.4%
[15]
  viability, T/C: 88.9%
[16]
  viability, T/C: 85.2%
Second compound 1 µM, first compound 0.316 µM
  viability, T/C: 90.5%
Second compound 1 µM, first compound 1 µM
  viability, T/C: 61.8%
[17]
  viability, T/C: 117%
[18]
  viability, T/C: 113%
[19]
  viability, T/C: 78.2%
[20]
  viability, T/C: 111%
Second compound 3.16 µM, first compound 0.316 µM
  viability, T/C: 80.8%
Second compound 3.16 µM, first compound 1 µM
  viability, T/C: 59.8%
[21]
  viability, T/C: 108%
[22]
  viability, T/C: 127%
[23]
  viability, T/C: 116%
[24]
  viability, T/C: 77%
Second compound 10 µM, first compound 0.316 µM
  viability, T/C: 70.2%
Second compound 10 µM, first compound 1 µM
  viability, T/C: 54.7%

## CC[C@@]1(O)C(=O)OCc2c1cc1n(c2=O)Cc2cc3c(CN(C)C)c(O)ccc3nc2-1 + Cc1cccc(N(C)C(=O)C2C(O)CCN2c2nc(C)cc(C(F)(F)F)c2C#N)c1
Second compound 0.0316 µM
  IC50: > 100 nM
Second compound 0.1 µM
  IC50: > 100 nM
Second compound 0.316 µM
  IC50: > 100 nM
Second compound 1 µM
  IC50: > 100 nM
Second compound 3.16 µM
  IC50: > 100 nM
Second compound 10 µM
  IC50: 64.7 nM
Second compound 0.0316 µM, first compound 0.000316 µM
  viability, T/C: 103%
Second compound 0.0316 µM, first compound 0.001 µM
  viability, T/C: 103%
[1]
  viability, T/C: 84.2%
[2]
  viability, T/C: 76.5%
[3]
  viability, T/C: 71.2%
[4]
  viability, T/C: 56.8%
Second compound 0.1 µM, first compound 0.000316 µM
  viability, T/C: 96%
Second compound 0.1 µM, first compound 0.001 µM
  viability, T/C: 115%
[5]
  viability, T/C: 109%
[6]
  viability, T/C: 83.7%
[7]
  viability, T/C: 73%
[8]
  viability, T/C: 58.9%
Second compound 0.316 µM, first compound 0.000316 µM
  viability, T/C: 97.8%
Second compound 0.316 µM, first compound 0.001 µM
  viability, T/C: 111%
[9]
  viability, T/C: 84.4%
[10]
  viability, T/C: 91.8%
[11]
  viability, T/C: 72.6%
[12]
  viability, T/C: 56.6%
Second compound 1 µM, first compound 0.000316 µM
  viability, T/C: 100%
Second compound 1 µM, first compound 0.001 µM
  viability, T/C: 121%
[13]
  viability, T/C: 93.2%
[14]
  viability, T/C: 82.2%
[15]
  viability, T/C: 56.2%
[16]
  viability, T/C: 61.2%
Second compound 3.16 µM, first compound 0.000316 µM
  viability, T/C: 118%
Second compound 3.16 µM, first compound 0.001 µM
  viability, T/C: 103%
[17]
  viability, T/C: 87.3%
[18]
  viability, T/C: 84%
[19]
  viability, T/C: 59.2%
[20]
  viability, T/C: 57.9%
Second compound 10 µM, first compound 0.000316 µM
  viability, T/C: 73.2%
Second compound 10 µM, first compound 0.001 µM
  viability, T/C: 104%
[21]
  viability, T/C: 75%
[22]
  viability, T/C: 68.3%
[23]
  viability, T/C: 52.8%
[24]
  viability, T/C: 48%
